In ChEMBL document CHEMBL2086323, “Anti-adipogenic chromone glycosides from Cnidium monnieri fruits in 3T3-L1 cells” (2012):
Calls of active or inactive are those of the source. No cut-off for these calls is given here.

Key:
3T3-L1 [1] = assay: Inhibition of adipogenesis in mouse 3T3L1 cells assessed as fat accumulation at 300 uM after 8 days by oil red O-staining based by ELISA plate reader; format: functional; conditions: 3T3-L1, 192 h
3T3-L1 [2] = assay: Inhibition of adipogenesis in mouse 3T3L1 cells assessed as fat accumulation at 100 uM after 8 days by oil red O-staining based by ELISA plate reader; format: functional; conditions: 3T3-L1, 192 h
3T3-L1 [3] = assay: Inhibition of adipogenesis in mouse 3T3L1 cells assessed as fat accumulation at 300 uM up to 2 days by oil red O-staining based by ELISA plate reader; format: functional, cell-based
3T3-L1 [4] = assay: Inhibition of adipogenesis in mouse 3T3L1 cells assessed as fat accumulation at 300 uM after 4 to 8 days by oil red O-staining based by ELISA plate reader; format: functional, cell-based
3T3-L1 [5] = assay: Inhibition of adipogenesis in mouse 3T3L1 cells assessed as fat accumulation at 300 uM after 2 to 4 days by oil red O-staining based by ELISA plate reader; format: functional, cell-based
3T3-L1 [6] = assay: Inhibition of adipogenesis in mouse 3T3L1 cells assessed as fat accumulation at 300 uM after 2 to 8 days by oil red O-staining based by ELISA plate reader; format: functional, cell-based
3T3-L1 [7] = assay: Inhibition of adipogenesis in mouse 3T3L1 cells assessed as fat accumulation at 300 uM up to 4 days by oil red O-staining based by ELISA plate reader; format: functional, cell-based

Structure (SMILES)	inhibition at 300 µM (3T3-L1 [1]) [%]	also measured
Cc1cc(=O)c2c(O)cc(O[C@@H]3O[C@H](CO)[C@@H](O)[C@H](O)[C@H]3O)cc2o1 [UNDULATOSIDE A]	88.5	–
C=C(C)C(O)Cc1c(O[C@@H]2O[C@H](CO)[C@@H](O)[C@H](O)[C@H]2O)cc2oc(CO)cc(=O)c2c1O (stereo partly drawn) [MONNIERISIDE E]	82.2	–
C=C(C)C(Cc1c(O)cc2oc(C)cc(=O)c2c1O)O[C@@H]1O[C@H](CO)[C@@H](O)[C@H](O)[C@H]1O (stereo partly drawn) [MONNIERISIDE C]	79.9	–
C/C(=C/Cc1c(O[C@@H]2O[C@H](CO)[C@@H](O)[C@H](O)[C@H]2O)cc2oc(C)cc(=O)c2c1O)CO	87	–
C/C(=C/Cc1c(O)cc2oc(C)cc(=O)c2c1O)CO[C@@H]1O[C@H](CO)[C@@H](O)[C@H](O)[C@H]1O [CNIDIMOSIDE A]	75	–
C=C(C)C1Cc2c(cc3oc(CO)cc(=O)c3c2O)O1 (stereo not drawn) [UMTATIN]	89.4	–
C/C(=C/Cc1c(O)cc2oc(CO)cc(=O)c2c1O)CO[C@@H]1O[C@H](CO)[C@@H](O)[C@H](O)[C@H]1O [HYDROXYCNIDIMOSIDE A]	73.1	–
Cc1cc(=O)c2c(O)c3c(cc2o1)OC(C(C)(C)O[C@@H]1O[C@H](CO)[C@@H](O)[C@H](O)[C@H]1O)C3 (stereo partly drawn) [MONNIERISIDE G]	99.7	–
C/C(=C/Cc1c(O[C@@H]2O[C@H](CO)[C@@H](O)[C@H](O)[C@H]2O)cc2oc(CO)cc(=O)c2c1O)CO [MONNIERISIDE B]	68.9	–
Oc1ccc(/C=C/c2cc(O)cc(O)c2)cc1 [RESVERATROL]	–	inhibition at 100 µM (3T3-L1 [2]): 19.4%
COc1cc2oc(C)cc(=O)c2c(O)c1C/C=C(/C)CO[C@@H]1O[C@H](CO)[C@@H](O)[C@H](O)[C@H]1O [CNIDIMOSIDE B]	14.7	inhibition (3T3-L1 [3]): Active; inhibition (3T3-L1 [4]): Active; inhibition (3T3-L1 [5]): Active; inhibition (3T3-L1 [6]): Active; inhibition (3T3-L1 [7]): Active
C=C(C)C1Cc2c(cc3oc(CO[C@@H]4O[C@H](CO)[C@@H](O)[C@H](O)[C@H]4O)cc(=O)c3c2O)O1 (stereo partly drawn) [MONNIERISIDE F]	97.1	–
C=C(C)C(Cc1c(O)cc2oc(CO)cc(=O)c2c1O)O[C@@H]1O[C@H](CO)[C@@H](O)[C@H](O)[C@H]1O (stereo partly drawn) [MONNIERISIDE D]	85.5	–
